Assay results: patent US10131652B2, “Pyrimidinyloxy benzene derivatives as herbicides” (E. I. DU PONT DE NEMOURS AND COMPANY, priority 2014, dated 2018)
Like-named read-outs stand apart in the source and are kept apart here.

Tests used:
Assay type in all cases: in vivo
[1] = tested on: wild buckwheat (Polygonum convolvulus); assay: Test E pre-/postemergence plant response; conditions: Fallopia convolvulus, scale 0 to 100, read-out: Plant response rating, Buckwheat, Wild; for pest or weed control at 16 g/ha: 16 g ai/ha; for pest or weed control at 31 g/ha: 31 g ai/ha; for pest or weed control at 62 g/ha: 62 g ai/ha; for pest or weed control at 125 g/ha: 125 g ai/ha
In short: (§1)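 Visual scores on a 0–100 scale (100 = complete control) were assigned against untreated controls 7–21 days after treatment in a controlled environment. Compounds, formulated with solvent plus surfactant, were applied to pre-emergence silt-loam sowings or to 1- to 4-leaf plants (2–18 cm) in potting medium.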

[2] = tested on: spring barley (Hordeum vulgare); assay: Test E pre-/postemergence plant response; conditions: for plant injury at 16 g/ha: 16 g ai/ha; for plant injury at 31 g/ha: 31 g ai/ha; for plant injury at 62 g/ha: 62 g ai/ha; for plant injury at 125 g/ha: 125 g ai/ha
In short: as §1

[3] = tested on: bearded sprangletop (Leptochloa fascicularis); assay: Test G flooded paddy rice/weed plant response; conditions: Flood, 21 days, scale 0 to 100 (0 no effect, 100 complete control)
Description: (§2) Three plastic pots (ca. 16-cm diameter) per rate were partially filled with sterilized Tama silt loam soil comprising a 35:50:15 ratio of sand, silt and clay and 2.6% organic matter. Separate plantings for each of the three pots were as follows. Seeds from the U.S. of monochoria (Monochoria vaginalis), small-flower umbrella sedge (Cyperus difformis), hardstem bulrush (Scirpus juncoides), and redstem (purple redstem, Ammannia coccinea), were planted into one 16-cm pot for each rate. Seeds from the U.S. of rice flatsedge (Cyperus iria), bearded sprangletop (Leptochloa fascicularis), one stand of 9 or 10 water seeded rice seedlings (Indica rice, Oryza sativa), and two stands of 3 or 4 transplanted rice seedlings (Oryza sativa cv. ‘Japonica—M202’) were planted into one 16-cm pot for each rate. Seeds from the U.S. of bamyardgrass (Echinochloa crus-galli), and late watergrass (Echinochloa oryzicola) were planted into one 16-cm pot for each rate. Plantings were sequential so that crop and weed species were at the 2.0 to 2.5-leaf stage at time of treatment.
(§3) Potted plants were grown in a greenhouse with day/night temperature settings of 30/27° C., and supplemental balanced lighting was provided to maintain a 16-hour photoperiod. Test pots were maintained in the greenhouse until test completion.
(§4) At time of treatment, test pots were flooded to 3 cm above the soil surface, treated by application of test compounds directly to the paddy water, and then maintained at that water depth for the duration of the test. Effects of treatments on rice and weeds were visually evaluated by comparison to untreated controls after 21 days. Plant response ratings, summarized in Table G, are based on a scale of 0 to 100 where 0 is no effect and 100 is complete control. A dash (-) response means no test result.

[4] = tested on: late watergrass (Echinochloa oryzicola); assay: Test G flooded paddy rice/weed plant response; conditions: Flood, 21 days, scale 0 to 100 (0 no effect, 100 complete control)
Description: as §2, §3, §4

[5] = tested on: rice flatsedge (Cyperus iria); assay: Test G flooded paddy rice/weed plant response; conditions: Flood, 21 days, scale 0 to 100 (0 no effect, 100 complete control)
Description: as §2, §3, §4

[6] = tested on: barnyardgrass (Echinochloa crus-galli); assay: Test G flooded paddy rice/weed plant response; conditions: Flood, 21 days, scale 0 to 100 (0 no effect, 100 complete control)
Description: as §2, §3, §4

[7] = tested on: transplanted rice seedlings (Oryza sativa cv. ‘Japonica—M202’); assay: Test G flooded paddy rice/weed plant response; conditions: Flood, 21 days, scale 0 to 100 (0 no effect, 100 complete control)
Description: as §2, §3, §4

[8] = tested on: small-flower umbrella sedge (Cyperus difformis); assay: Test G flooded paddy rice/weed plant response; conditions: Flood, 21 days, scale 0 to 100 (0 no effect, 100 complete control)
Description: as §2, §3, §4

[9] = tested on: redstem (purple redstem, Ammannia coccinea); assay: Test G flooded paddy rice/weed plant response; conditions: Flood, 21 days, scale 0 to 100 (0 no effect, 100 complete control)
Description: as §2, §3, §4

[10] = tested on: hardstem bulrush (Scirpus juncoides); assay: Test G flooded paddy rice/weed plant response; conditions: Flood, 21 days, scale 0 to 100 (0 no effect, 100 complete control)
Description: as §2, §3, §4

[11] = tested on: water seeded rice seedlings (Indica rice, Oryza sativa); assay: Test G flooded paddy rice/weed plant response; conditions: Flood, 21 days, scale 0 to 100 (0 no effect, 100 complete control)
Description: as §2, §3, §4

[12] = tested on: monochoria (Monochoria vaginalis); assay: Test G flooded paddy rice/weed plant response; conditions: Flood, 21 days, scale 0 to 100 (0 no effect, 100 complete control)
Description: as §2, §3, §4

[13] = post-emergence, Postemergence, scale 0 to 100, read-out: Plant response rating, Barley, Spring
[14] = post-emergence, Postemergence, scale 0 to 100 (0 no effect, 100 complete control), read-out: Plant response rating, Barley, Spring
[15] = pre-emergence, Preemergence, scale 0 to 100, read-out: Plant response rating, Barley, Spring

## FC(F)c1cc(-c2ccccc2Oc2ncc(Cl)cn2)no1 [Compound 35, 5-chloro-2-[2-[5-(difluoromethyl)-3-isoxazolyl]phenoxy]pyrimidine]
[1]; post-emergence, Postemergence
  pest or weed control at 16 g/ha: 75%
  pest or weed control at 31 g/ha: 85%
  pest or weed control at 62 g/ha: 90%
  pest or weed control at 125 g/ha: 95%
[1]; pre-emergence, Preemergence
  pest or weed control at 16 g/ha: 60%
  pest or weed control at 31 g/ha: 75%
  pest or weed control at 62 g/ha: 90%
  pest or weed control at 125 g/ha: 100%
[2]; [13]
  plant injury at 16 g/ha: 5%
  plant injury at 31 g/ha: 5%
  plant injury at 62 g/ha: 10%
[2]; [14]
  plant injury at 125 g/ha: 25%
[3]; 32 g ai/ha
  Plant response rating, Sprangletop, Brdd.: 60
[3]; 64 g ai/ha
  Plant response rating, Sprangletop, Brdd.: 100
[3]; 125 g ai/ha
  Plant response rating, Sprangletop, Brdd.: 100
[3]; 250 g ai/ha
  Plant response rating, Sprangletop, Brdd.: 100
[4]; 32 g ai/ha
  Plant response rating, Watergrass, Late: 0
[4]; 64 g ai/ha
  Plant response rating, Watergrass, Late: 30
[4]; 125 g ai/ha
  Plant response rating, Watergrass, Late: 40
[4]; 250 g ai/ha
  Plant response rating, Watergrass, Late: 100
[5]; 32 g ai/ha
  Plant response rating, Flatsedge, Rice: 100
[5]; 64 g ai/ha
  Plant response rating, Flatsedge, Rice: 100
[5]; 125 g ai/ha
  Plant response rating, Flatsedge, Rice: 100
[5]; 250 g ai/ha
  Plant response rating, Flatsedge, Rice: 100
[6]; 32 g ai/ha
  Plant response rating, Barnyardgrass: 30
[6]; 64 g ai/ha
  Plant response rating, Barnyardgrass: 45
[6]; 125 g ai/ha
  Plant response rating, Barnyardgrass: 100
[6]; 250 g ai/ha
  Plant response rating, Barnyardgrass: 100
[7]; 32 g ai/ha
  Plant response rating, Rice, Transplanted: 15
[7]; 64 g ai/ha
  Plant response rating, Rice, Transplanted: 30
[7]; 125 g ai/ha
  Plant response rating, Rice, Transplanted: 45
[7]; 250 g ai/ha
  Plant response rating, Rice, Transplanted: 100
[8]; 32 g ai/ha
  Plant response rating, Sedge, Umbrella: 0
[8]; 64 g ai/ha
  Plant response rating, Sedge, Umbrella: 98
[8]; 125 g ai/ha
  Plant response rating, Sedge, Umbrella: 100
[8]; 250 g ai/ha
  Plant response rating, Sedge, Umbrella: 100
[9]; 32 g ai/ha
  Plant response rating, Redstem: 0
[9]; 64 g ai/ha
  Plant response rating, Redstem: 85
[9]; 125 g ai/ha
  Plant response rating, Redstem: 90
[9]; 250 g ai/ha
  Plant response rating, Redstem: 100
[10]; 32 g ai/ha
  Plant response rating, Bulrush, Hardstem: 0
[10]; 64 g ai/ha
  Plant response rating, Bulrush, Hardstem: 95
[10]; 125 g ai/ha
  Plant response rating, Bulrush, Hardstem: 100
[10]; 250 g ai/ha
  Plant response rating, Bulrush, Hardstem: 100
[11]; 32 g ai/ha
  Plant response rating, Rice, Water Seeded: 60
[11]; 64 g ai/ha
  Plant response rating, Rice, Water Seeded: 70
[11]; 125 g ai/ha
  Plant response rating, Rice, Water Seeded: 100
[11]; 250 g ai/ha
  Plant response rating, Rice, Water Seeded: 100
[12]; 32 g ai/ha
  Plant response rating, Monochoria: 98
[12]; 64 g ai/ha
  Plant response rating, Monochoria: 100
[12]; 125 g ai/ha
  Plant response rating, Monochoria: 100
[12]; 250 g ai/ha
  Plant response rating, Monochoria: 100

## Fc1cccc(Oc2ncc(Cl)cn2)c1-c1cc(C(F)F)on1 [Compound 55, 5-chloro-2-[2-[5-(difluoromethyl)-3-isoxazolyl]-3-fluorophenoxy]pyrimidine]
[1]; post-emergence, Postemergence
  pest or weed control at 16 g/ha: 65%
  pest or weed control at 31 g/ha: 95%
  pest or weed control at 62 g/ha: 95%
  pest or weed control at 125 g/ha: 95%
[1]; pre-emergence, Preemergence
  pest or weed control at 16 g/ha: 65%
  pest or weed control at 31 g/ha: 100%
  pest or weed control at 62 g/ha: 100%
  pest or weed control at 125 g/ha: 100%
[2]; [13]
  plant injury at 16 g/ha: 10%
  plant injury at 31 g/ha: 10%
  plant injury at 62 g/ha: 15%
[2]; [14]
  plant injury at 125 g/ha: 20%
[2]; [15]
  plant injury at 16 g/ha: 10%
  plant injury at 31 g/ha: 10%
  plant injury at 62 g/ha: 45%
  plant injury at 125 g/ha: 50%
[3]; 32 g ai/ha
  Plant response rating, Sprangletop, Brdd.: 45
[3]; 64 g ai/ha
  Plant response rating, Sprangletop, Brdd.: 80
[3]; 125 g ai/ha
  Plant response rating, Sprangletop, Brdd.: 100
[3]; 250 g ai/ha
  Plant response rating, Sprangletop, Brdd.: 100
[4]; 32 g ai/ha
  Plant response rating, Watergrass, Late: 0
[4]; 64 g ai/ha
  Plant response rating, Watergrass, Late: 0
[4]; 125 g ai/ha
  Plant response rating, Watergrass, Late: 75
[4]; 250 g ai/ha
  Plant response rating, Watergrass, Late: 100
[5]; 32 g ai/ha
  Plant response rating, Flatsedge, Rice: 85
[5]; 64 g ai/ha
  Plant response rating, Flatsedge, Rice: 100
[5]; 125 g ai/ha
  Plant response rating, Flatsedge, Rice: 100
[5]; 250 g ai/ha
  Plant response rating, Flatsedge, Rice: 100
[6]; 32 g ai/ha
  Plant response rating, Barnyardgrass: 0
[6]; 64 g ai/ha
  Plant response rating, Barnyardgrass: 75
[6]; 125 g ai/ha
  Plant response rating, Barnyardgrass: 100
[6]; 250 g ai/ha
  Plant response rating, Barnyardgrass: 100
[7]; 32 g ai/ha
  Plant response rating, Rice, Transplanted: 20
[7]; 64 g ai/ha
  Plant response rating, Rice, Transplanted: 60
[7]; 125 g ai/ha
  Plant response rating, Rice, Transplanted: 80
[7]; 250 g ai/ha
  Plant response rating, Rice, Transplanted: 100
[8]; 32 g ai/ha
  Plant response rating, Sedge, Umbrella: 98
[8]; 64 g ai/ha
  Plant response rating, Sedge, Umbrella: 100
[8]; 125 g ai/ha
  Plant response rating, Sedge, Umbrella: 100
[8]; 250 g ai/ha
  Plant response rating, Sedge, Umbrella: 100
[9]; 32 g ai/ha
  Plant response rating, Redstem: 85
[9]; 64 g ai/ha
  Plant response rating, Redstem: 95
[9]; 125 g ai/ha
  Plant response rating, Redstem: 100
[9]; 250 g ai/ha
  Plant response rating, Redstem: 100
[10]; 32 g ai/ha
  Plant response rating, Bulrush, Hardstem: 80
[10]; 64 g ai/ha
  Plant response rating, Bulrush, Hardstem: 100
[10]; 125 g ai/ha
  Plant response rating, Bulrush, Hardstem: 100
[10]; 250 g ai/ha
  Plant response rating, Bulrush, Hardstem: 100
[11]; 32 g ai/ha
  Plant response rating, Rice, Water Seeded: 45
[11]; 64 g ai/ha
  Plant response rating, Rice, Water Seeded: 100
[11]; 125 g ai/ha
  Plant response rating, Rice, Water Seeded: 100
[11]; 250 g ai/ha
  Plant response rating, Rice, Water Seeded: 100
[12]; 32 g ai/ha
  Plant response rating, Monochoria: 100
[12]; 64 g ai/ha
  Plant response rating, Monochoria: 100
[12]; 125 g ai/ha
  Plant response rating, Monochoria: 100
[12]; 250 g ai/ha
  Plant response rating, Monochoria: 100
